Patent US9062041B2 (Bayer Intellectual Property GmbH, priority 2011, dated 2015)

What was measured:
Type in all cases: cell-based
[1] = target: EP2 subtype of the human PGE2 receptor (Homo sapiens, UniProt P43116); test: cAMP antagonism test on the human EP2 receptor (HTRF cAMP detection); conditions: hEP2 receptor, read-out: Antagonism hEP2 IC50
Outline: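 Cells expressing human EP2 preincubated 20 min at RT with compound (0.8 nM–16.5 μM), then stimulated 60 min with PGE2 (3× solution 1.5 nM) in PBS-IBMX. After 20 min lysis, cAMP measured by competitive HTRF with cAMP-d2 and Eu cryptate anti-cAMP antibody (665/620 nm ratio).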

[2] = target: EP4 subtype of the human PGE2 receptor (Homo sapiens, UniProt P35408); test: cAMP antagonism test on the human EP4 receptor (HTRF cAMP detection); conditions: selectivity towards hEP4, IC50 measured by cAMP antagonism test
Chain of EP4 subtype of the human PGE2 receptor (P35408 whole entry): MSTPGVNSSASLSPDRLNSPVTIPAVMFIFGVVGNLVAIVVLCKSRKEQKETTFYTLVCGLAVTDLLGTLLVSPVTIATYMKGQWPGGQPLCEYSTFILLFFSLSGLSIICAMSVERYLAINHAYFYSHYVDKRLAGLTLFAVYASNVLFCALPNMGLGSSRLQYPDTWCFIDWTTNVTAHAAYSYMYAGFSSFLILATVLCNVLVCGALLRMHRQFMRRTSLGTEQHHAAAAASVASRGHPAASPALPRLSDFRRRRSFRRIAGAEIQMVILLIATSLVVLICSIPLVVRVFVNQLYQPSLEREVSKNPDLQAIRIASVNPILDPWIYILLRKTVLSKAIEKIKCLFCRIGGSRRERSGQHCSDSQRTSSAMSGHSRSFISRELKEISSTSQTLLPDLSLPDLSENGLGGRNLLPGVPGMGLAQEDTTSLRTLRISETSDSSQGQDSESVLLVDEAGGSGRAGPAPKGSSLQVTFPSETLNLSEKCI
Outline: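 Cells expressing human EP4 preincubated 20 min at RT with compound (0.8 nM–16.5 μM), then stimulated with PGE2 (0.3 nM in 3× solution, with IBMX) 60 min at RT. After lysis, cAMP measured by HTRF competition (665/620 nm ratio); antagonism seen as rise in FRET signal.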

[3] = target: T1, human PGD receptor (Homo sapiens, UniProt Q13258); test: cAMP antagonism test on the human prostaglandin D receptor (HTRF cAMP detection); conditions: selectivity towards hDP, IC50 measured by cAMP antagonism test
T1 sequence (Q13258 1-359): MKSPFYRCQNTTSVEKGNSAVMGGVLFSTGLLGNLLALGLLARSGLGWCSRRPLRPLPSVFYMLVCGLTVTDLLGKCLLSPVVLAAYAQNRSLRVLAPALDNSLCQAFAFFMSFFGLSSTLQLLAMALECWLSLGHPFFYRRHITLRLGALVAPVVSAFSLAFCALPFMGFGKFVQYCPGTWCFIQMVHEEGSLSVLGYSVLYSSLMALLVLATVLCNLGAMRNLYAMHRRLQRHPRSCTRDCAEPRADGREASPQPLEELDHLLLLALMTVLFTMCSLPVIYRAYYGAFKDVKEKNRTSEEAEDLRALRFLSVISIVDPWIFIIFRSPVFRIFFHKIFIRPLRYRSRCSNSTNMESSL
Outline: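 Cells pre-mixed with cAMP-d2 were preincubated with compound (0.8 nM–16.5 μM) for 20 min at RT, then stimulated with 3× PGD2 solution (6 nM, in PBS-IBMX) for 30 min at RT. After lysis (20 min), HTRF read at 665/620 nm; antagonism seen as rise in FRET ratio.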

Chain of EP2 subtype of the human PGE2 receptor (P43116 whole entry): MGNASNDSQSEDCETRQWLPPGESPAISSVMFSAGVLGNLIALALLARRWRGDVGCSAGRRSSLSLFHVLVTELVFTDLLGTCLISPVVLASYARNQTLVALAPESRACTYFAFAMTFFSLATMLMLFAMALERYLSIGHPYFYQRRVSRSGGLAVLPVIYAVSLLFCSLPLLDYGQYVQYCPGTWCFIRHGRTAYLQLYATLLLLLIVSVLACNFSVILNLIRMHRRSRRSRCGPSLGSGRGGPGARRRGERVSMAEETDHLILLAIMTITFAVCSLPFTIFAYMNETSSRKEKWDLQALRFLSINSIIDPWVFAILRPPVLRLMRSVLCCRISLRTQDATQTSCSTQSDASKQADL

SMILES | IC50 [1] [nM] | Selectivity hEP2/hEP4 [2] | Selectivity hEP2/hDP [3]
Cc1c(C(=O)NCCOC(F)(F)F)ccc2nn(CC3CCN(C(=O)c4ccc(-c5ccc(F)cc5)cc4)CC3)cc12 [Example 109, 2-({1-[(4′-fluoro-biphenyl-4-yl)-carbonyl]piperidin-4-yl}-methyl)-4-methyl-N-[2-(trifluoro-methoxy)ethyl]-2H-indazol-5-carboxamide] | 9.53 | xxx (xxx > 100) | xxx (xxx > 100)
Cc1c(C(=O)NCCOC(F)(F)F)ccc2nn(CC3CCN(C(=O)c4ccc(Oc5ccc(C(F)(F)F)cc5)cc4)CC3)cc12 [Example 110, 4-methyl-N-[2-(trifluoromethoxy)ethyl]-2-[(1-{4-[4-(trifluoro-methyl)phenoxy]-benzoyl}piperidin-4-yl)-methyl]-2H-indazol-5-carboxamide] | 4.4 | xxx (xxx > 100) | xxx (xxx > 100)
Cc1c(C(=O)NCCOC(C)(C)C)ccc2nn(CC3CCN(C(=O)c4ccc(Cl)cc4)CC3)cc12 [Example 111, N-(2-tert-butoxyethyl)-2-{[1-(4-chlorobenzoyl)piperidin-4-yl]methyl}-4-methyl-2H-indazol-5-carboxamide] | 13.7 | xxx (xxx > 100) | xxx (xxx > 100)
Cc1c(C(=O)NCCOC(C)(C)C)ccc2nn(CC3CCN(C(=O)c4ccc(Oc5ccc(F)cc5)cc4)CC3)cc12 [Example 112, N-(2-tert-butoxyethyl)-2-({1-[4-(4-fluoro-phenoxy)benzoyl]-piperidin-4-yl}methyl)-4-methyl-2H-indazol-5-carboxamide] | 11.9 | xxx (xxx > 100) | xxx (xxx > 100)
Cc1c(C(=O)NCCOC(C)(C)C)ccc2nn(CC3CCN(C(=O)c4ccc(-c5ccc(F)cc5)cc4)CC3)cc12 [Example 113, N-(2-tert-butoxyethyl)-2-({1-[(4′-fluoro-biphenyl-4-yl)-carbonyl]piperidin-4-yl}methyl)-4-methyl-2H-indazol-5-carboxamide] | 13.9 | xxx (xxx > 100) | xxx (xxx > 100)
Cc1c(C(=O)NCCOC(C)(C)C)ccc2nn(CC3CCN(C(=O)c4ccc(Oc5ccc(C(F)(F)F)cc5)cc4)CC3)cc12 [Example 114, N-(2-tert-butoxyethyl)-4-methyl-2-[(1-{4-[4-(trifluoromethyl)-phenoxy]benzoyl}-piperidin-4-yl)methyl]-2H-indazol-5-carboxamide] | 6.08 | xxx (xxx > 100) | xxx (xxx > 100)
[2H]C([2H])([2H])OC([2H])([2H])C([2H])([2H])NC(=O)c1ccc2nn(CC3CCN(C(=O)c4ccc(Cl)cc4)CC3)cc2c1C [Example 115, 2-{[1-(4-chlorobenzoyl)piperidin-4-yl]methyl}-N-(2-[^2H3]methoxy[^2H4]ethyl)-4-methyl-2H-indazol-5-carboxamide] | 9.05 | xxx (xxx > 100) | xxx (xxx > 100)
[2H]C([2H])([2H])OC([2H])([2H])C([2H])([2H])NC(=O)c1ccc2nn(CC3CCN(C(=O)c4ccc(Oc5ccc(F)cc5)cc4)CC3)cc2c1C [Example 116, 2-({1-[4-(4-fluoro-phenoxy)benzoyl]-piperidin-4-yl}methyl)-4-methyl-N-(2-[^2H3]-methyloxy[^2H4]ethyl)-2H-indazol-5-carboxamide] | 5.52 | xxx (xxx > 100) | xxx (xxx > 100)
COCCNC(=O)c1ccc2nn(CC3CN(C(=O)c4ccc(Cl)cc4F)C3)cc2c1C [Example 121, 2-{[1-(4-chloro-2-fluorobenzoyl)azetidin-3-yl]methyl}-N-(2-methoxyethyl)-4-methyl-2H-indazol-5-carboxamide] | 15.5 | xxx (xxx > 100) | xxx (xxx > 100)
COCCNC(=O)c1ccc2nn(CC3CN(C(=O)c4ccc(C(F)(F)F)c(F)c4)C3)cc2c1C [Example 122, 2-({1-[3-fluoro-4-(trifluoromethyl)benzoyl]azetidin-3-yl}methyl)-N-(2-methoxy-ethyl)-4-methyl-2H-indazol-5-carboxamide] | 28.6 | xxx (xxx > 100) | xxx (xxx > 100)
COCCNC(=O)c1ccc2nn(CC3CN(C(=O)c4ccc(Cl)c(C(F)(F)F)c4)C3)cc2c1C [Example 123, 2-({1-[4-chloro-3-(trifluoromethyl)benzoyl]azetidin-3-yl}methyl)-N-(2-methoxy-ethyl)-4-methyl-2H-indazol-5-carboxamide] | 8.92 | xxx (xxx > 100) | xxx (xxx > 100)
COCCNC(=O)c1ccc2nn(CC3CN(C(=O)c4ccc(C5CC5)cc4)C3)cc2c1C [Example 124, 2-{[1-(4-cyclopropylbenzoyl)azetidin-3-yl]methyl}-N-(2-methoxyethyl)-4-methyl-2H-indazol-5-carboxamide] | 7.99 | xxx (xxx > 100) | xxx (xxx > 100)
COCCNC(=O)c1ccc2nn(CC3CN(C(=O)c4ccc(Oc5ccc(C(F)(F)F)cc5)cc4)C3)cc2c1C [Example 125, N-(2-methoxyethyl)-4-methyl-2-[(1-{4-[4-(trifluoromethyl)phenoxy]benzoyl}azetidin-3-yl)methyl]-2H-indazol-5-carboxamide] | 3.66 | xxx (xxx > 100) | xxx (xxx > 100)
Cc1c(C(=O)NCCN2CCC(F)(F)C2)ccc2nn(CC3CN(C(=O)c4ccc(Cl)cc4)C3)cc12 [Example 126, 2-{[1-(4-chlorobenzoyl)azetidin-3-yl]methyl}-N-[2-(3,3-difluoropyrrolidin-1-yl)ethyl]-4-methyl-2H-indazol-5-carboxamide] | 21.2 | xxx (xxx > 100) | xxx (xxx > 100)
Cc1c(C(=O)NCCSC(F)(F)F)ccc2nn(CC3CN(C(=O)c4ccc(Cl)cc4)C3)cc12 [Example 127, 2-{[1-(4-chlorobenzoyl)azetidin-3-yl]methyl}-4-methyl-N-{2-[(trifluoromethyl)sulphanyl]ethyl}-2H-indazol-5-carboxamide] | 55.6 | xxx (xxx > 100) | xxx (xxx > 100)
Cc1c(C(=O)NCCN2CCOCC2)ccc2nn(CC3CN(C(=O)c4ccc(Cl)cc4)C3)cc12 [Example 128, 2-{[1-(4-chlorobenzoyl)azetidin-3-yl]methyl}-4-methyl-N-(2-morpholinoethyl)-2H-indazol-5-carboxamide] | 471 | xx (xx: 10-100) | xx (xx: 10-100)
Cc1c(C(=O)NCC(F)(F)F)ccc2nn(CC3CN(C(=O)c4ccc(Cl)cc4)C3)cc12 [Example 129, 2-{[1-(4-chlorobenzoyl)azetidin-3-yl]methyl}-4-methyl-N-(2,2,2-trifluoroethyl)-2H-indazol-5-carboxamide] | 309 | xx (xx: 10-100) | xx (xx: 10-100)
Cc1c(C(=O)NCC(F)(F)F)ccc2nn(CC3CN(C(=O)c4ccc(OC(F)(F)F)cc4)C3)cc12 [Example 130, 4-methyl-N-(2,2,2-trifluoroethyl)-2-({1-[4-(trifluoromethoxy)benzoyl]azetidin-3-yl}methyl)-2H-indazol-5-carboxamide] | 241 | xx (xx: 10-100) | xx (xx: 10-100)
Cc1c(C(=O)NCC(F)(F)F)ccc2nn(CC3CN(C(=O)c4ccc(C(F)(F)F)cc4F)C3)cc12 [Example 131, 2-({1-[2-fluoro-4-(trifluoromethyl)benzoyl]azetidin-3-yl}methyl)-4-methyl-N-(2,2,2-trifluoroethyl)-2H-indazol-5-carboxamide] | 228 | xx (xx: 10-100) | xx (xx: 10-100)
Cc1c(C(=O)NCC(F)(F)F)ccc2nn(CC3CN(C(=O)c4ccc(S(F)(F)(F)(F)F)cc4)C3)cc12 [Example 132, 4-methyl-2-({1-[4-(pentafluoro-λ^6-sulphanyl)benzoyl]azetidin-3-yl}methyl)-N-(2,2,2-trifluoroethyl)-2H-indazol-5-carboxamide] | 109 | xxx (xxx > 100) | xxx (xxx > 100)
Cc1c(C(=O)NCCSC(F)(F)F)ccc2nn(CC3CN(C(=O)c4ccc(OC(F)(F)F)cc4)C3)cc12 [Example 133, 4-methyl-2-({1-[4-(trifluoromethoxy)benzoyl]azetidin-3-yl}methyl)-N-{2-[(trifluoromethyl)sulphanyl]ethyl}-2H-indazol-5-carboxamide] | 41.9 | xxx (xxx > 100) | xxx (xxx > 100)
